Reference: PubChem BioAssay (NCI)
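Five compound concentrations were applied to cells in 96-well plates for 48 hours; endpoints were derived by simple linear interpolation of the resulting dose-response curve. Definition used: TGI = concentration required for complete inhibition of growth.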

Assays:
Assay in all cases: DTP human tumour cell line panel, 48 h
[1] = tested on: SW-620 colon
[2] = tested on: OVCAR-3 ovarian
[3] = tested on: EKVX NSCLC
[4] = tested on: A549 NSCLC
[5] = tested on: NCI/ADR-RES ovarian
[6] = tested on: NCI-H522 lung

Row | Structure (SMILES) | TGI [1] [µM] | TGI [2] [µM] | TGI [3] [µM] | TGI [4] [µM] | TGI [5] [µM] | TGI [6] [µM]
1 | CN(C)CCN(C)P12(Oc3ccccc3O1)Oc1c(Cl)c(Cl)c(Cl)c(Cl)c1O2 | > 100 | > 100 | > 100 | > 100 | > 100 | –
2 | CCCCOCCOCCOC1=CC(=O)c2c(O)ccc(O)c2C1=O | 3.06 | 3 | > 10 | 3.43 | 5.14 | 2.99
3 | Clc1ccc(Nc2nnc(CNc3ccc(-c4nnc(Nc5ccc(Cl)cc5)s4)cc3)s2)cc1 | > 100 | – | > 100 | > 100 | > 100 | 43.2
4 | CC1(C)C2CCC3CC(CCC#N)CCC3C21C#N (configuration not stated) | > 100 | > 100 | > 100 | > 100 | > 100 | > 100
5 | [N-]=[N+]=Nc1ccccc1-c1ccccc1[N+](=O)[O-] | > 100 | > 100 | > 100 | > 100 | 92.1 | 45.4
6 | O=c1[nH]nc(Cc2ccccc2)n1/N=C/c1cccs1 | > 100 | > 100 | > 100 | > 100 | > 100 | –
7 | CC(C)OC(=O)c1ccc(NCc2cc(O)ccc2O)cc1 | 17.7 | 4.71 | 17.5 | > 67.8 | – | 0.638
8 | Cc1c(C)c2c(c(N)c1C#N)C(=O)N(O)C2=O | > 100 | > 100 | > 100 | > 100 | > 100 | > 100
9 | CC(C)Oc1c(C2(c3ccccc3)SCCCS2)c(=O)c1=O | > 100 | > 100 | > 100 | > 100 | > 100 | 97.3
10 | CSc1ncnc2c1cnn2Cc1cnnn1COCC(O)CO (configuration not stated) | > 100 | > 100 | > 100 | > 100 | > 100 | 29
11 | COc1ccc(Nc2nc3ccccc3n3cccc23)cc1OC | 36.6 | 42.8 | 68.5 | 43.6 | 56.1 | 31.2
